Measurements published in patent US10947188B2, “Small molecule ferroptosis inducers” (THE TRUSTEES OF COLUMBIA UNIVERSITY IN THE CITY OF NEW YORK, priority 2016, dated 2021).

How the values were obtained:
HT-1080 = test: Modulatory profiling: Alamar Blue viability, lethal compound cotreated with death modulator (EC50, AUC); assay type: cell-based; set-up: AUC, modulator HT.3MA / AUC, modulator HT.ALLN / AUC HT.ATA / AUC HT.ActD / AUC HT.BHA / AUC HT.BHT / AUC HT.BocD / AUC HT.CHX / AUC HT.Co2+ / AUC HT.DPQ / AUC HT.EGTA / AUC HT.Lmim / AUC HT.NAD+ / AUC HT.Nec-1 / AUC HT.SP600125 / AUC HT.TLCK / AUC HT.U0126: unit not given beside the values; conditions: for AUC HT.ATA: HT-1080, modulator ATA; for AUC HT.ActD: HT-1080, modulator ActD; for AUC HT.BHA: HT-1080, modulator BHA; for AUC HT.BHT: HT-1080, modulator BHT; for AUC HT.BocD: HT-1080, modulator BocD; for AUC HT.CHX: HT-1080, modulator CHX; for AUC HT.Co2+: HT-1080, modulator Co2+; for AUC HT.CspA: HT-1080, modulator CspA; for AUC HT.DPQ: HT-1080, modulator DPQ; for AUC HT.EGTA: HT-1080, modulator EGTA; for AUC HT.Gd3+: HT-1080, modulator Gd3+; for AUC HT.LNAME: HT-1080, modulator LNAME; for AUC HT.Lmim: HT-1080, modulator Lmim; for AUC HT.NAD+: HT-1080, modulator NAD+; for AUC HT.NMMA: HT-1080, modulator NMMA; for HT.atoc (AUC) / HT.bCarotene (AUC) / HT.deferox (AUC) / HT.digoxin (AUC) / HT.trolox (AUC) / HT.zVAD (AUC): HT-1080; for HT.atoc (AUC): modulator atoc; for HT.bCarotene (AUC): modulator bCarotene; for HT.deferox (AUC): modulator deferox; for HT.digoxin (AUC): modulator digoxin; for HT.trolox (AUC): modulator trolox; for HT.zVAD (AUC): modulator zVAD; for AUC, modulator HT.3MA / AUC, modulator HT.ALLN: HT-1080 cells, modulatory profile value (AUC); for AUC, modulator HT.3MA: lethal compound cotreated with modulator 3MA; for AUC, modulator HT.ALLN: lethal compound cotreated with modulator ALLN; for AUC HT.BHA: reference of the scale not given here; for AUC HT.EGTA: reference of the scale not given here
BJeLR = test: as above; assay type: cell-based, human; set-up: AUC, modulator BJ.Gd3+ / AUC, modulator BJ.LNAME / AUC, modulator BJ.Lmin / AUC, modulator BJ.3MA / AUC, modulator BJ.ALLN / AUC, modulator BJ.Boc D / AUC, modulator BJ.CHX / AUC, modulator BJ.Co2+ / AUC, modulator BJ.Nec-1 / AUC, modulator BJ.Pepstatin / AUC, modulator BJ.TLCK / AUC, modulator BJ.atoc / AUC, modulator BJ.trolox / AUC, modulator BJ.zVAD: unit not given beside the values; conditions: BJeLR cells, modulatory profile value (AUC); for AUC, modulator BJ.3MA: lethal compound cotreated with modulator 3MA; for AUC, modulator BJ.ALLN: lethal compound cotreated with modulator ALLN; for AUC, modulator BJ.Boc D: lethal compound cotreated with modulator Boc D; for AUC, modulator BJ.CHX: lethal compound cotreated with modulator CHX; for AUC, modulator BJ.Co2+: lethal compound cotreated with modulator Co2+; for AUC, modulator BJ.DPQ: lethal compound cotreated with modulator DPQ; for AUC, modulator BJ.Gd3+: lethal compound cotreated with modulator Gd3+; for AUC, modulator BJ.LNAME: lethal compound cotreated with modulator LNAME; for AUC, modulator BJ.Lmin/NAD+: lethal compound cotreated with modulator Lmin/NAD+; for AUC, modulator BJ.Lmin: lethal compound cotreated with modulator Lmin; for AUC, modulator BJ.NAD+: lethal compound cotreated with modulator NAD+; for AUC, modulator BJ.NMMA: lethal compound cotreated with modulator NMMA; for AUC, modulator BJ.Nec-1: lethal compound cotreated with modulator Nec-1; for AUC, modulator BJ.Pepstatin: lethal compound cotreated with modulator Pepstatin; for AUC, modulator BJ.TLCK: lethal compound cotreated with modulator TLCK; for AUC, modulator BJ.atoc: lethal compound cotreated with modulator atoc; for AUC, modulator BJ.trolox: lethal compound cotreated with modulator trolox; for AUC, modulator BJ.zVAD: lethal compound cotreated with modulator zVAD; for AUC, modulator BJ.3MA: reference of the scale not given here; for AUC, modulator BJ.ALLN: reference of the scale not given here; for AUC, modulator BJ.Boc D: reference of the scale not given here; for AUC, modulator BJ.CHX: reference of the scale not given here; for AUC, modulator BJ.Co2+: reference of the scale not given here; for AUC, modulator BJ.DPQ: reference of the scale not given here; for AUC, modulator BJ.Gd3+: reference of the scale not given here; for AUC, modulator BJ.LNAME: reference of the scale not given here; for AUC, modulator BJ.NAD+: reference of the scale not given here; for AUC, modulator BJ.NMMA: reference of the scale not given here; for AUC, modulator BJ.Nec-1: reference of the scale not given here; for AUC, modulator BJ.Pepstatin: reference of the scale not given here; for AUC, modulator BJ.TLCK: reference of the scale not given here

O=C1C(Cl)=C(N2CCOCC2)C(=O)C(Cl)=C1N1CCOCC1 [CIL11]
AUC HT.ATA (HT-1080): 0.0148
AUC HT.ActD (HT-1080): −0.0343
AUC HT.BHA (HT-1080): −0.01902
AUC HT.BHT (HT-1080): −0.09641
AUC HT.BocD (HT-1080): 0.07911
AUC HT.CHX (HT-1080): 0.007052
AUC HT.Co2+ (HT-1080): 0.05358
AUC HT.CspA (HT-1080): −0.005498
AUC HT.DPQ (HT-1080): 0.003904
AUC HT.EGTA (HT-1080): 0.004002
AUC HT.Gd3+ (HT-1080): −0.0298
AUC HT.LNAME (HT-1080): 0.02954
AUC HT.Lmim (HT-1080): −0.034
AUC HT.NAD+ (HT-1080): 0.02582
AUC HT.NMMA (HT-1080): −0.02554
AUC HT.Nec-1 (HT-1080; HT-1080, modulator Nec-1): 0.01983
AUC HT.Pepstatin (HT-1080; HT-1080, modulator Pepstatin): −0.003096
AUC HT.SP600125 (HT-1080; HT-1080, modulator SP600125): −0.02876
AUC HT.TLCK (HT-1080; HT-1080, modulator TLCK): 0.01902
AUC HT.U0126 (HT-1080; HT-1080, modulator U0126): 0.06089
HT.atoc (AUC) (HT-1080): 0.07926
HT.bCarotene (AUC) (HT-1080): −0.01827
HT.deferox (AUC) (HT-1080): 0.0278
HT.digoxin (AUC) (HT-1080): −0.01376
HT.trolox (AUC) (HT-1080): −0.02115
HT.zVAD (AUC) (HT-1080): −0.002495
AUC, modulator HT.3MA (HT-1080): 0.0001144
AUC, modulator HT.ALLN (HT-1080): 0.01794
AUC, modulator BJ.3MA (BJeLR): 0.09004
AUC, modulator BJ.ALLN (BJeLR): 0.01538
AUC, modulator BJ.Boc D (BJeLR): −0.04323
AUC, modulator BJ.CHX (BJeLR): 0.1239
AUC, modulator BJ.Co2+ (BJeLR): 0.07771
AUC, modulator BJ.DPQ (BJeLR): −0.01566
AUC, modulator BJ.Gd3+ (BJeLR): 0.02905
AUC, modulator BJ.LNAME (BJeLR): −0.0003217
AUC, modulator BJ.Lmin/NAD+ (BJeLR): 0.01344
AUC, modulator BJ.Lmin (BJeLR): −0.04034
AUC, modulator BJ.NAD+ (BJeLR): −0.03919
AUC, modulator BJ.NMMA (BJeLR): −0.00378
AUC, modulator BJ.Nec-1 (BJeLR): 0.02974
AUC, modulator BJ.Pepstatin (BJeLR): 0.04125
AUC, modulator BJ.TLCK (BJeLR): −0.01155
AUC, modulator BJ.atoc (BJeLR): −0.02082
AUC, modulator BJ.trolox (BJeLR): −0.01782
AUC, modulator BJ.zVAD (BJeLR): −0.004517

CCCS(=O)(=O)c1nnnn1-c1cccc(OC)c1 [CIL15]
AUC HT.ATA (HT-1080): −0.002809
AUC HT.ActD (HT-1080): 0.01242
AUC HT.BHA (HT-1080): −0.03993
AUC HT.BHT (HT-1080): −0.1489
AUC HT.BocD (HT-1080): 0.1021
AUC HT.CHX (HT-1080): 0.06342
AUC HT.Co2+ (HT-1080): 0.1397
AUC HT.CspA (HT-1080): −0.007032
AUC HT.DPQ (HT-1080): −0.02394
AUC HT.EGTA (HT-1080): −0.0006158
AUC HT.Gd3+ (HT-1080): −0.03881
AUC HT.LNAME (HT-1080): 0.001309
AUC HT.Lmim (HT-1080): −0.04837
AUC HT.NAD+ (HT-1080): 0.01762
AUC HT.NMMA (HT-1080): −0.01943
HT.atoc (AUC) (HT-1080): 0.1224
HT.bCarotene (AUC) (HT-1080): −0.003906
HT.deferox (AUC) (HT-1080): 0.04237
HT.digoxin (AUC) (HT-1080): −0.01238
HT.trolox (AUC) (HT-1080): −0.02956
HT.zVAD (AUC) (HT-1080): −0.04682
AUC, modulator HT.3MA (HT-1080): 0.0263
AUC, modulator HT.ALLN (HT-1080): 0.0001245
AUC, modulator BJ.3MA (BJeLR): 0.02761
AUC, modulator BJ.ALLN (BJeLR): −0.06757
AUC, modulator BJ.Boc D (BJeLR): −0.05321
AUC, modulator BJ.CHX (BJeLR): 0.1287
AUC, modulator BJ.Co2+ (BJeLR): 0.0961
AUC, modulator BJ.DPQ (BJeLR): −0.01238
AUC, modulator BJ.Gd3+ (BJeLR): 0.02535
AUC, modulator BJ.LNAME (BJeLR): −0.02453
AUC, modulator BJ.Lmin/NAD+ (BJeLR): −0.01164
AUC, modulator BJ.Lmin (BJeLR): −0.0004619
AUC, modulator BJ.NAD+ (BJeLR): 0.01287
AUC, modulator BJ.NMMA (BJeLR): −0.03623
AUC, modulator BJ.Nec-1 (BJeLR): 0.02391
AUC, modulator BJ.Pepstatin (BJeLR): 0.0256
AUC, modulator BJ.TLCK (BJeLR): −0.005629
AUC, modulator BJ.atoc (BJeLR): −0.01149
AUC, modulator BJ.trolox (BJeLR): −0.01026
AUC, modulator BJ.zVAD (BJeLR): 0.01243

O=C(/C=C/c1cccc(NC(=O)c2cccs2)c1)c1ccccc1 [CIL33]
AUC HT.ATA (HT-1080): 0.04655
AUC HT.ActD (HT-1080): −0.03269
AUC HT.BHA (HT-1080): −0.02938
AUC HT.BHT (HT-1080): −0.1089
AUC HT.BocD (HT-1080): 0.006307
AUC HT.CHX (HT-1080): 0.06763
AUC HT.Co2+ (HT-1080): 0.1418
AUC HT.CspA (HT-1080): −0.03213
AUC HT.DPQ (HT-1080): 0.02728
AUC HT.EGTA (HT-1080): −0.007461
AUC HT.Gd3+ (HT-1080): −0.02182
AUC HT.LNAME (HT-1080): 0.003047
AUC HT.Lmim (HT-1080): −0.007068
AUC HT.NAD+ (HT-1080): −0.0189
AUC HT.NMMA (HT-1080): −0.002248
HT.atoc (AUC) (HT-1080): 0.04094
HT.bCarotene (AUC) (HT-1080): −0.01651
HT.deferox (AUC) (HT-1080): 0.1056
HT.digoxin (AUC) (HT-1080): −0.03413
HT.trolox (AUC) (HT-1080): −0.05079
HT.zVAD (AUC) (HT-1080): 0.03457
AUC, modulator HT.3MA (HT-1080): 0.08789
AUC, modulator HT.ALLN (HT-1080): 0.04123
AUC, modulator BJ.3MA (BJeLR): 0.06199
AUC, modulator BJ.ALLN (BJeLR): −0.1124
AUC, modulator BJ.Boc D (BJeLR): −0.03229
AUC, modulator BJ.CHX (BJeLR): 0.1026
AUC, modulator BJ.Co2+ (BJeLR): 0.04311
AUC, modulator BJ.DPQ (BJeLR): 0.02549
AUC, modulator BJ.Gd3+ (BJeLR): −0.06539
AUC, modulator BJ.LNAME (BJeLR): −0.03157
AUC, modulator BJ.Lmin/NAD+ (BJeLR): −0.0126
AUC, modulator BJ.Lmin (BJeLR): 0.01529
AUC, modulator BJ.NAD+ (BJeLR): 0.05051
AUC, modulator BJ.NMMA (BJeLR): 0.0458
AUC, modulator BJ.Nec-1 (BJeLR): −0.08953
AUC, modulator BJ.Pepstatin (BJeLR): 0.07672
AUC, modulator BJ.TLCK (BJeLR): −0.1077
AUC, modulator BJ.atoc (BJeLR): 0.0414
AUC, modulator BJ.trolox (BJeLR): −0.05339
AUC, modulator BJ.zVAD (BJeLR): −0.02675
